One experiment relates to fibroblasts (NIH/3T3). Put plainly: Scratching experiment, Hst1 cyclic peptides (Examples 11 and 12). It is filed as cell-based. To be noted: dosage needed to achieve the same pharmaceutical effect in the scratch experiment. The procedure: At the same time, fibroblasts (NIH/3T3; GNM 6; Chinese Academy of Sciences, China) were plated into a 6-well plate at a number of 2×10^6/well and cultured to a density of 70-80%. The cells were starved for 8-12 hours before the experiment. Mitomycin C (Sigma Aldrich, USA) was added into the culture medium to make its concentration in the culture medium be 15 μg/ml, and the culture medium was changed after 3 hours of treatment. Scratching was conducted with a 200 μl pipette tip perpendicular to the bottom of the well-plate with the same force, and the well-plate was rinsed with PBS twice after scratching. Each well was added with an appropriate amount of a DEME medium (10% FBS, 1% double antibody), and except for the blank control group, each well was added with 10 μM of the linear Hst1, 0.01 μM of the propynylglycine-Hst1 cyclic peptide, 0.1 μM of the propynylglycine-Hst1 cyclic peptide and 1 μM of the propynylglycine-Hst1 cyclic peptide as experimental groups. At 0 hour, the cells in each group were photographed by using a microscope (Olympus, Japan). […] The scratched area of each group was calculated by using imageJ (Rawak Software, Inc. Germany) software, and the scratch area at 0 hour was an initial scratch area. The scratch healing rate was calculated as follows: […]

The subject of experiment [1] is full-thickness skin defect wound surfaces. As to the kind of experiment: Effects of cyclic peptide Hst1 on wound repair in mice (Example 10): healing rate, HE/Masson histology, CD31/VEGF immunohistochemistry. It is filed as in vivo, C57 BL/6 mice. The procedure: This example adopted the propargylglycine-Hst1 cyclic peptide (Click-Histatin1) provided in Example 1, a cyclized Hst1 (Sortase A-cyclic histatin1) prepared by the Sortase A enzymatic method provided in Example 4, and a linear peptide Hst1 (Histatin1) to conduct animal experiments to observe the effect of the propargylglycine-Hst1 on the healing rates of the wound surfaces of mice. The concentration of the linear peptide Hst1 was 10 μM, the concentration of the propargylglycine-Hst1 cyclic peptide was 0.1 μM, and the concentration of the cyclized Hst1 prepared by the Sortase A enzymatic method was each 0.1 μM. 12 healthy male special pathogen-free grade C57 BL/6 mice (purchased from Guangdong Experimental Animal Center) of 6-8 weeks old and weighing 22-28 g. They were intraperitoneally injected with 5 ml/kg of 1% pentobarbital sodium for anesthesia. After the mice had no corneal reflex, the hair on their backs was carefully removed and disinfected with alcohol. […] full-thickness skin defect wound surfaces were prepared on the back of each mouse by using a circular skin punch. The 12 mice were divided into a Control (blank) group with 3 mice, a 10 μM linear peptide Hst1 (Histatin1) group with 3 mice, a 0.1 μM propynylglycine-Hst1 cyclic peptide (Click-Histatin1) group with 3 mice, and a 0.1 μM cyclized Hst1 prepared by a Sortase A enzymatic method (Sortase A-cyclic histatin1) group with 3 mice, according to a random number table method. Each wound surface was added with 0.5 ml of four drugs respectively, and administration was conducted every day until the wound surfaces of the experimental groups healed. Photographs were taken on days 0, 3, 5, 7, and 10 after surgery, and wound tissues were sampled on day 10 for subsequent pathological staining. On days 0, 3, 5, 7, and 10 after injury, the general condition of wound healing of the mice was observed and photographed with a digital camera (see FIG. 4), and the wound healing rate was calculated (see FIG. 5). Wound healing rate=(wound area immediately after injury−unhealed wound area at each time point)[…]wound area immediately after injury×100%. The wound specimens were fixed in 4% paraformaldehyde for 48 hours, rinsed with tap water for 10 minutes, dehydrated with graded ethanol, permeabilized with xylene, and embedded in paraffin to prepare 4 μm thick sections. Some sections were taken for HE staining and Masson staining, and observed for the thickness of the granulation tissue, the length of the dermal gap, and the newly grown collagen of the wound surface under an inverted fluorescence microscope at 40×, 100×, 200×, and 400× respectively (see FIGS. 6 and 7). 5 sections were taken from each mouse, and 5 fields of view were selected for each section. Data analysis was performed using the software Image-pro Plus. […] It was added with a rabbit anti-mouse CD31 primary antibody (with a dilution ratio of 1:300) and a mouse anti-VEGF (with a dilution ratio of 1:100), incubated overnight at 4° C., and washed with PBS. […] It was subjected to DAB development, hematoxylin counterstaining. gradient ethanol dehydration, xylene permeabilization, and resin blocking. 5 sections were taken from each mouse, and 5 fields of view were selected for each section. The sections were observed under a 400× inverted fluorescence microscope, and analyzed for the number of CD31-positive blood vessels (see FIG. 8) and VEGF expression amounts (see FIG. 9, shown in brown) by using Image-pro Plus software. The measurement data were expressed by M±SD, and the data were analyzed by one-way analysis of variance (ANOVA) and an independent samples T-test with SPSS 20.0 software to detect whether the differences among the groups were statistically significant, and a Bonferroni test was used for pairwise comparison. *p<0.05. **p<0.01. ***p<0.001 meant the difference was statistically significant, and p>0.05 was not statistically significant.

[2] abbreviates: day 10, immunohistochemistry, 0.1 μM Click-Histatin1, 10 μM Histatin1.

“Linear Hst1: linear peptide Hst1 (Histatin1), amino acid sequence SEQ ID NO.1”: in the experiment with fibroblasts (NIH/3T3), the “Dosage of agents required for scratch test” value came to 10 µM. For the same substance, in experiment [1] (day 7, 10 μM Histatin1 vs 0.1 μM Click-Histatin1), the “healing rate of the wound surface” value is “no significant difference”. Besides, the “dermal gap length at both ends of the wound surface” value in experiment [1] (day 10, HE staining, 0.1 μM Click-Histatin1, 0.1 μM Sortase A-cyclic histatin1, 10 μM Histatin1) was “longest dermal gap length”. In experiment [1] (day 10, Masson staining, 0.1 μM Click-Histatin1, 0.1 μM Sortase A-cyclic histatin1, 10 μM Histatin1), the “expression amount of collagen at the wound surfaces” value is on record as “significantly higher than that of the Control group”. In addition, in experiment [1] (setting [2]), the VEGF expression amount result is “higher than that in the Control group” and the “number of CD31-positive blood vessels under each field of view” value is “significantly higher than that in the Control group”.

For the origin of these results see patent US20240336658A1, “CYCLIC PEPTIDE AND PREPARATION METHOD AND USE THEREOF” (HANGZHOU HUIBO SCIENCE AND TECHNOLOGY CO., LTD, priority 2021, published 2024).
